# How the values were obtained:
# SP2 mouse myeloma cells = experiment: mouse tumour model, survival of Balb/c mice injected with SP2 cells; type: in vivo; settings: groups of 8 Balb/c mice; i.p. once a day, five days a week; adriamycin 0.25 mg/kg, tolmetin 70 mg/kg; after 32 days
# Procedure: The in vivo relevance of our findings was studied using a mouse tumour model. SP2 tumour cells were injected into 4 groups of mice. Groups of 8 male Balb/c mice 8 weeks old were maintained on normal diets. Animals were injected with 2 million SP2 mouse myeloma cells on day 1. On day 3 intraperitoneal injection with adriamycin, tolmetin or a combination of the two was begun. This continued once a day, five days a week for a total of 32 days. The agents were dissolved in PBS and prepared freshly twice per week. The animals were weighed and the average weight of the group was used to calculate the required concentration of the drugs. Adriamycin was administered to give a final concentration of 0.25 mg/kg, the tolmetin dose was 70 mg/kg. […] The results were expressed as the number of animals alive each day as a percentage of the original number of animals alive.
# Group 1 received injections of the vehicle (PBS) alone, group 2, adriamycin at 0.25 mg/kg, group 3, tolmetin at 70 mg/kg and group 4 received both agents (adriamycin, 0.25 mg/kg and tolmetin, 70 mg/kg). After 32 days there were clear differences in the % survival between the groups (FIG. 5). […] Two mice remained in the adriamycin group but 5 survived to the end of the experiment from the combination group (group 4).
# [1] = system: GST prepared from DLKP cells; experiment: total GST assay with 1-chloro-2,4-dinitrobenzene; type: biochemical, human; settings: 0.4 mM
# Procedure: The other NSAIDs were tested in a total GST assay (Habig, W. H., and Jakoby, W. B., (1981); Methods Enzymol., 77: 218-231). Total cellular GST activity was assayed, using 1-chloro-2,4-dinitrobenzene as a substrate, according to the method of Habig, W. H., and Jakoby, W. B., (1981); supra. Due to spectrophotometric interference at 340 nm, caused by the majority of the NSAIDs, the assays were all performed at 360 nm, without any apparent effect on the rate of the control reaction The results are shown in Table 5.
# DLKP cell line = experiment: miniaturised in vitro colorimetric cell survival assay (acid phosphatase end-point), DLKP; type: cell-based, human
# Procedure: (§1) All the results presented in this Example for the DLKP, A549 and OAW42-SR cell lines were derived using the same miniaturised in vitro calorimetric assay system. On Day 1 of the assay 1000 cells/well/100 μl were plated into 96-well plates. Cells were allowed to attach overnight and cell viability was visually assessed. […] NSAID plus chemotherapeutic drug) to be analysed were added onto the cells. The individual drugs were added separately in 50 μl quantities (4× stocks, to take into account the dilution effect of having 200 μl final volume in each well). The drugs were left on the cells for five further days (Day 7) and cell number was determined using the acid phosphatase end-point assay which uses p-nitrophenol phosphate as substrate (Martin, A. and Clynes, M. (1991) In Vitro Dev. Biol., 27A, 183-184). On Day 7 the culture medium was removed from the cells and they were washed once with phosphate buffered saline (PBS). […] After the incubation period 50 μl of 1N NaOH was added to each well to develop the colour. The plates were then read at 405 nm (reference 620 nm) on an ELISA plate-reader. […] All results are the cell survival means ±S.D. from a minimum of three experiments.
# MRP-specific substrates = experiment: screen for enhancement of toxicity of MRP substrates by NSAIDs; type: cell-based; settings: summary statements
# MRP pump = target: T1, MRP pump (Homo sapiens, UniProt P33527); experiment: ATP-dependent transport of [3H]LTC4 into inside-out plasma membrane vesicles from HL60ADR cells; type: biochemical
# T1 construct: inside-out plasma membrane vesicles prepared from HL60ADR cells; endogenous in cells; host or cells: HL60ADR cells (plasma membrane vesicles)
# Procedure: To determine if the NSAIDs were acting directly on the MRP pump the uptake of [^3H]LTC4 into inside-out plasma membrane vesicles prepared from HL60ADR cells was examined using a rapid filtration procedure (Ishikawa,T., et al. (1994); J. Biol. Chem. 269 (46); 29085-29093). ATP-dependent transport of [^3H]LTC4 into the membrane vesicles was measured by a rapid filtration method using a Millipore sampling manifold. The membrane vesicles were thawed at 37° C. before use and kept on ice. The reaction components consisted of 0.25 M sucrose/10 mM Tris.HCl pH 7.4/1 mM ATP/10 mM MgCl2/10 mM creatine phosphate/ 110 μg/ml creatine kinase and 10 nM [^3H]LTC4, with 50 μg of the inside-out vesicle preparation, in a final volume of 110 μl. This suspension was incubated at 37° C., with gentle mixing, and aliquots, 20 μl, were taken at the indicated points. Those aliquots were diluted in 1 ml of ice-cold incubation buffer before being applied to 0.22 μm Millipore GSWP nitrocellulose filters, pre-soaked in ice-cold incubation buffer, under suction. The filters were subsequently washed with 3 ml ice-cold incubation buffer, and absorbed radioactivity was measured using a scintillation counter (Beckman). In control experiments ATP was replaced with 5μ-AMP to determine the ATP-dependent transport.
# A549 cell line = experiment: miniaturised in vitro colorimetric cell survival assay (acid phosphatase end-point), A549; type: cell-based, human; settings: for % cell survival: alone or + Adriamycin 20 ng/ml
# Procedure: as §1
# HL-60ADR cells = experiment: etoposide-induced apoptosis (nuclear fragmentation), HL-60ADR; type: cell-based; settings: HL-60ADR (resistant); etoposide alone or co-treated with sulindac; FIG. 1
# Procedure: An experiment was carried out to determine the effect of the NSAID sulindac on etoposide-induced apoptosis in two cell lines, namely HL-60S and HL-60ADR. These cell lines were donated by Dr. Melvin Center, Kansas State University, Manhattan Kans. 66506, U.S.A. For the HL-60S and ADR cell lines the percentage of apoptotic cells within the cell population, following drug exposure, was used to quantify toxicity. Cells were plated in fresh medium at a concentration of 10^6 cells/ml in a 24-well plate (Greiner) and drugs were then added to the wells. A 200 μl sample from each well was taken after 4 and 8 hrs. Samples were cytospun for 2 min at 500 rpm using a Shandon Cytofuge3. After air-drying the cytospins were stained using a Romanowsky staining kit, Rappi-Diff II (Langanbach), dried and mounted in DPX (BDH). Slides were studied on an Optiphot microscope (Nikon) fitted with a 40× objective, and visualised on a monitor via a Mitsubishi CCD-100E colour CCD-camera and a 0.6× relay lens. Nuclear fragmentation was used as a morphological marker for apoptosis and a minimum of 200 cells were assessed in at least three different microscopic fields. Results were expressed as the percentage of apoptotic cells within the population. Each experiment was repeated in duplicate.
# COR L23 R (MRP+) cells = settings: doxorubicin 10 mg/ml alone or with sulindac 20 mg/ml, 1, 2, 4 h, FIG. 3
# Procedure: (§2) 10^6 COR L23 P (parental non-MRP resistant, MRP−) or COR L23 R (MRP resistant, MRP+) cells were added to 75 cm^3 vented flasks containing HEPES buffered Rosemount Park Memorial Institute (RPMI) medium and maintained at 37° C. in a 5% CO2 atmosphere. […] After three days of growth, doxorubicin (final concentration 10 mg/ml), sulindac (final concentration 20 mg/ml) or doxorubicin and sulindac were added to individual flasks. Samples were taken after 1, 2 and 4 h. and assayed for drug content.
# (§3) The contents of each flask were washed twice with 5 ml of PBS and stored at −70° C. The flasks were thawed and 100 μl of water and 100 μl of 33% silver nitrate added to each and mixed for 5 min. […]
# (§4) The extract was resuspended in 50 μl of methanol in the sample vial and loaded into the HPLC autosampler. […] The mobile phases were pumped through a C18 reversed-phase Ultrasphere XL (Beckman) HPLC column (4.6×70 mm) with absorbance measured at 253 nm. […] The amount of doxorubicin and sulindac present was quantified by measuring the peak height of these drugs and the internal standard. […] The concentration of doxorubicin in the samples was calculated from the) nd development standard line using the peak height ratio. The sulindac concentrations were calculated by the same method.
# [2] = system: COR L23 P (non-MRP) cells; settings: doxorubicin 10 mg/ml alone or with sulindac 20 mg/ml, 1, 2, 4 h, FIG. 4
# Procedure: as §2, §3, §4
# OAW42-SR cell line = experiment: miniaturised in vitro colorimetric cell survival assay, LRP overexpressing OAW42-SR; type: cell-based, human; settings: vi) Adriamycin 147 ng/ml alone
# Procedure: All the results presented in this Example for the DLKP, A549 and OAW42-SR cell lines were derived using the same miniaturised in vitro calorimetric assay system. On Day 1 of the assay 1000 cells/well/100 μl were plated into 96-well plates. Cells were allowed to attach overnight and cell viability was visually assessed. On Day 2 the two drugs (i.e. NSAID plus chemotherapeutic drug) to be analysed were added onto the cells. The individual drugs were added separately in 50 μl quantities (4× stocks, to take into account the dilution effect of having 200 μl final volume in each well). The drugs were left on the cells for five further days (Day 7) and cell number was determined using the acid phosphatase end-point assay which uses p-nitrophenol phosphate as substrate (Martin, A. and Clynes, M. (1991) In Vitro Dev. Biol., 27A, 183-184). On Day 7 the culture medium was removed from the cells and they were washed once with phosphate buffered saline (PBS). […] After the incubation period 50 μl of 1N NaOH was added to each well to develop the colour. The plates were then read at 405 nm (reference 620 nm) on an ELISA plate-reader. […] All results are the cell survival means ±S.D. from a minimum of three experiments.
# DLKP-A cell line = experiment: miniaturised in vitro colorimetric cell survival assay, P-170 overexpressing DLKP-A; type: cell-based, human; settings: v) Vincristine 1.0 μg/ml alone
# Procedure: All the results presented in this Example for the DLKP, A549 and OAW42-SR cell lines were derived using the same miniaturised in vitro calorimetric assay system. On Day 1 of the assay 1000 cells/well/100 μl were plated into 96-well plates. Cells were allowed to attach overnight and cell viability was visually assessed. On Day 2 the two drugs (i.e. NSAID plus chemotherapeutic drug) to be analysed were added onto the cells. The individual drugs were added separately in 50 μl quantities (4× stocks, to take into account the dilution effect of having 200 μl final volume in each well). The drugs were left on the cells for five further days (Day 7) and cell number was determined using the acid phosphatase end-point assay which uses p-nitrophenol phosphate as substrate (Martin, A. and Clynes, M. (1991) In Vitro Dev. Biol., 27A, 183-184). On Day 7 the culture medium was removed from the cells and they were washed once with phosphate buffered saline (PBS). After washing, 100 μl of freshly prepared substrate-containing buffer (0.1% Triton X-100 in 0.1M sodium acetate, pH 5.5) was added to each well and the plates were left in an incubator at 37° C. for 2 h. After the incubation period 50 μl of 1N NaOH was added to each well to develop the colour. The plates were then read at 405 nm (reference 620 nm) on an ELISA plate-reader.
# In the results given below the % cell survival in the drug-free control is 100%. All results are the cell survival means ±S.D. from a minimum of three experiments.
# v) is an example of a positive NSAID plus a positive drug on a P-170 overexpressing cell line: DLKP-A;
# T1 sequence (P33527 whole entry): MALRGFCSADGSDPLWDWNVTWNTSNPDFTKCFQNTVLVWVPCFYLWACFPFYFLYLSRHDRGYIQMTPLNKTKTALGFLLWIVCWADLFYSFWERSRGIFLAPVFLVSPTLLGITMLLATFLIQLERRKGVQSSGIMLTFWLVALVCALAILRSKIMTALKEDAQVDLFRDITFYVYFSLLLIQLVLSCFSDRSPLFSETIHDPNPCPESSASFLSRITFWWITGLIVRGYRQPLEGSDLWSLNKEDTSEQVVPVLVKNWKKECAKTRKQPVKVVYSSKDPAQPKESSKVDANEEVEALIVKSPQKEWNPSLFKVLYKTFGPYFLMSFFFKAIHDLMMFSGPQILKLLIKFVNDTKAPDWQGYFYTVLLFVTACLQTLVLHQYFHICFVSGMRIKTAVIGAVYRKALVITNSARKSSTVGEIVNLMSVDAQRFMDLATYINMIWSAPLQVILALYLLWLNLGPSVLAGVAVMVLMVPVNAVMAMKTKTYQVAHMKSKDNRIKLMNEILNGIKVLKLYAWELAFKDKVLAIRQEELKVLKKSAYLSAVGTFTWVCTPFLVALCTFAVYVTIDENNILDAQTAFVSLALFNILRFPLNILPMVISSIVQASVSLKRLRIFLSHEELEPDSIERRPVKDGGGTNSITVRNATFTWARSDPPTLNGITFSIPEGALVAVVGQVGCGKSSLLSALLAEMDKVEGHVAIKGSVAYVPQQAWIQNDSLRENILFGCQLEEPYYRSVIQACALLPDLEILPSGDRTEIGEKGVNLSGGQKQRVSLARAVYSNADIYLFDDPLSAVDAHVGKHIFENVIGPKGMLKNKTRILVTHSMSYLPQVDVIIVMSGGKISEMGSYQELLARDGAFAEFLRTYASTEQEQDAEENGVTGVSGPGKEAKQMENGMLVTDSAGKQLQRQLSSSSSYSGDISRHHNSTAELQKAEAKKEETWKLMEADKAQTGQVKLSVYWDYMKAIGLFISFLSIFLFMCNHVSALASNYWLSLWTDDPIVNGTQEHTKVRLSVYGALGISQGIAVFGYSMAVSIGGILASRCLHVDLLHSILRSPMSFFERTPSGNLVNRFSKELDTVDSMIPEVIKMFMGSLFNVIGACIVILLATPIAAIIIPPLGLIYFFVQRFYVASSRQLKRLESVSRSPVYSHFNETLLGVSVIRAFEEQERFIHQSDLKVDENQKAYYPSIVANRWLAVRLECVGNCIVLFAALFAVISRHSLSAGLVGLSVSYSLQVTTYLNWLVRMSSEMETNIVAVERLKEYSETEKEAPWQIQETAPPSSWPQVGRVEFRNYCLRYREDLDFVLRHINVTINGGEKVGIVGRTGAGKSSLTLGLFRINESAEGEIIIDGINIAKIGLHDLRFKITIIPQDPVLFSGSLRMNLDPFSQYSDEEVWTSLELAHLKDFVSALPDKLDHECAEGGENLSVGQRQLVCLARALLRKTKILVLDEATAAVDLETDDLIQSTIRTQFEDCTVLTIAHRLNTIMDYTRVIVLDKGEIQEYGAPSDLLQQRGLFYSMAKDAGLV
smiles,measurement,setting,value
"Cc1ccc(C(=O)c2ccc(CC(=O)O)n2C)cc1 [Tolmetin, tolmetin]",mice surviving to the end of the experiment,SP2 mouse myeloma cells,all but one from group 3 were dead
same,% Inhibition of GST,[1],55%
same,% cell survival,"DLKP cell line; i) Tolmetin 6.25 μg/ml, alone or + Adriamycin 10 ng/ml",104.38 ± 6.8%
same,% cell survival,"DLKP cell line; i) Tolmetin 12.5 μg/ml, alone or + Adriamycin 10 ng/ml",104.23 ± 6.2%
same,% cell survival,"DLKP cell line; i) Tolmetin 25 μg/ml, alone or + Adriamycin 10 ng/ml",100.49 ± 7.3%
same,enhancement of toxicity of MRP substrates,MRP-specific substrates,have been found to enhance the toxicity of MRP-specific substrates
same,inhibition at 432 µM,MRP pump; 0.432 mM,22%
same,inhibition at 863 µM,MRP pump; 0.863 mM,50%
same,% cell survival,A549 cell line; xiv) Tolmetin 8.50 μg/ml,91.84 ± 10.99%
same,% cell survival,A549 cell line; xiv) Tolmetin 14.10 μg/ml,97.59 ± 9.85%
same,% cell survival,A549 cell line; xiv) Tolmetin 24.20 μg/ml,99.24 ± 10.35%
"COc1cc([C@@H]2c3cc4c(cc3[C@@H](O[C@@H]3O[C@@H]5CO[C@@H](C)O[C@H]5[C@H](O)[C@H]3O)[C@H]3COC(=O)[C@H]23)OCO4)cc(OC)c1O [VP-16, etoposide]",% cell survival,DLKP cell line; iii) VP-16 100 ng/ml alone,63.46 ± 1.4%
same,"etoposide-induced apoptosis, percentage of apoptotic cells",HL-60ADR cells,only a basal level of apoptosis is seen
"COc1cccc2c1C(=O)c1c(O)c3c(c(O)c1C2=O)C[C@@](O)(C(=O)CO)C[C@@H]3O[C@H]1C[C@H](N)[C@H](O)[C@H](C)O1 [Adriamycin, adriamycin]",mice surviving to the end of the experiment,SP2 mouse myeloma cells,Two
same,% cell survival,DLKP cell line; i) Adriamycin 10 ng/ml alone,60.35 ± 3.2%
same,doxorubicin level in the cells,COR L23 R (MRP+) cells,less doxorubicin is found in the cells
same,doxorubicin level in the cells,[2],high levels of doxorubicin are found in the cell
same,viability at 0.04 µg/mL,"A549 cell line; Homo sapiens, A549, 120 h, ix) Adriamycin 40 ng/ml alone",54 ± 6.05%
same,viability at 0.015 µg/mL,"A549 cell line; Homo sapiens, A549, 120 h, viii) Adriamycin 15 ng/ml alone",61 ± 5.05%
same,viability at 0.015 µg/mL,"A549 cell line; Homo sapiens, A549, 120 h, x) Adriamycin 15 ng/ml alone",47 ± 5.15%
same,viability at 0.04 µg/mL,"A549 cell line; Homo sapiens, A549, 120 h, xi) Adriamycin 40 ng/ml alone",46 ± 5.05%
same,viability at 0.015 µg/mL,"A549 cell line; Homo sapiens, A549, 120 h, xii) Adriamycin 15 ng/ml alone",70.7 ± 4.25%
same,viability at 0.015 µg/mL,"A549 cell line; Homo sapiens, A549, 120 h, xiii) Adriamycin 15 ng/ml alone",68 ± 5.82%
same,viability at 0.02 µg/mL,"A549 cell line; Homo sapiens, A549, 120 h, xiv) Adriamycin 20 ng/ml alone",78 ± 3.95%
same,viability at 0.015 µg/mL,"A549 cell line; Homo sapiens, A549, 120 h, xv) Adriamycin 15 ng/ml alone",89 ± 11.9%
same,viability at 0.017 µg/mL,"A549 cell line; Homo sapiens, A549, 120 h, xvi) Adriamycin 17 ng/ml alone",76.7 ± 5.4%
same,% cell survival,OAW42-SR cell line,47.41 ± 1.3%
"CC[C@]1(O)C[C@H]2CN(CCc3c([nH]c4ccccc34)[C@@](C(=O)OC)(c3cc4c(cc3OC)N(C=O)[C@H]3[C@@](O)(C(=O)OC)[C@H](OC(C)=O)[C@]5(CC)C=CCN6CC[C@]43[C@@H]65)C2)C1 [Vincristine, vincristine]",% cell survival,DLKP cell line; ii) Vincristine 1.0 ng/ml alone,72.98 ± 3.5%
same,% cell survival,DLKP-A cell line,89.12 ± 1.3%

# Reference: patent publication US6413937B1, “Combinations for use in increasing the potency of a substrate for multidrug resistance related protein” (Dublin City University and Enterprise Ireland, priority 1996, dated 2002)
